Test results published in patent US20220120736A1, “METHODS AND ASSAYS FOR MODULATING GENE TRANSCRIPTION BY MODULATING CONDENSATES” (Whitehead Institute for Biomedical Research, priority 2018, published 2022).

Assays:
[1] = test system: MYC RNA expression in MCF7 cells; experiment: RT-qPCR of MYC RNA expression; format: cell-based, human; conditions: MCF7 cells estrogen-deprived 3 days; 10 nM estrogen, or 10 nM estrogen and 5 uM 4-hydroxytamoxifen, 24 hours; normalized to GAPDH
Procedure: RNA was isolated by AllPrep Kit (Qiagen 80204) followed by cDNA synthesis using High-Capacity cDNA Reverse Transcription Kit (Applies Biosystems 4368814). qPCR was performed in biological and technical triplicate using Power SYBR Green mix (Life Technologies #4367659) on a QuantStudio 6 System (Life Technologies). The following oligos was used in the qPCR; Myc fwd […] (SEQ ID NO: 255), MYC rev […] (SEQ ID NO: 256), GAPDH fwd […] (SEQ ID NO: 257), GAPDH rev […] (SEQ ID NO: 258). Fold change was calculated and MYC expression values were normalized to GAPDH expression.

[2] = test system: ER Y537S, ER D538G, ER-YAP1, ER-PCDH11X condensates with MED1; experiment: In vitro droplet formation assay, mutant ER GFP fusion proteins and MED1; format: biochemical; conditions: all four mutant ER proteins; ligand 100 uM
Procedure: Recombinant GFP or mCherry fusion proteins were concentrated and desalted to an appropriate protein concentration and 125 mM NaCl using Amicon Ultra centrifugal filters (30K MWCO, Millipore). Recombinant proteins were added to solutions at varying concentrations with indicated final salt and 10% PEG-8000 as crowding agent in Droplet Formation Buffer (50 mM Tris-HCl pH 7.5, 10% glycerol, 1 mM DTT). The protein solution was immediately loaded onto a homemade chamber comprising a glass slide with a coverslip attached by two parallel strips of double-sided tape. Slides were then imaged with an Andor confocal microscope with a 150× objective. Unless indicated, images presented are of droplets settled on the glass coverslip. […] One microliter of this concentrated stock was used in a 10 uL droplet formation reaction to achieve a final concentration of 100 uM. To calculate enrichment for the in vitro droplet assay, droplets were defined as a region of interest in FIJI by the MED1 scaffold channel, and the maximum signal of the ER client within that droplet was determined. Alternatively, maximum signal of MED1 was measured. In all cases, the maximum signal was divided by the background client signal in the image to generate a Cin/out.

[3] = test system: ER LBD-MED1 condensate in U2OS-Lac cells; experiment: Live cell imaging of U2OS-Lac cells with endogenously tagged MED1-mEGFP; format: cell-based; conditions: after 10 nM B-Estradiol 45 minutes; 10 uM 4-Hydroxytamoxifen, 30 minutes
Procedure: Cells were imaged pre-treatment and 30 minutes after treatment with a 1:1000 dilution of DMSO or 10 uM 4-Hydroxytamoxifen in Estrogen-free DMEM. Quantification was performed in FIJI; the instrument background was subtracted from the average signal intensity in the array, then divided by the instrument background subtracted from an average nuclear signal to yield the normalized signal intensity.

[4] = biological target: T1, OCT4 (FKBP-tagged) (Mus musculus, UniProt P20263+Q8C7D2); experiment: Western blot after OCT4 degradation in OCT4 degron line; format: cell-based; conditions: dTag versus DMSO
T1 construct: an ESC line bearing endogenous knock-in of DNA encoding the FKBP protein fused to OCT4; HA (C); endogenous in cells; host or cells: V6.5 mouse ES cells (Med1-mEGFP background), homozygous Oct4-FKBP knock-in
T1 sequence (P20263 with tags, fused parts or gaps): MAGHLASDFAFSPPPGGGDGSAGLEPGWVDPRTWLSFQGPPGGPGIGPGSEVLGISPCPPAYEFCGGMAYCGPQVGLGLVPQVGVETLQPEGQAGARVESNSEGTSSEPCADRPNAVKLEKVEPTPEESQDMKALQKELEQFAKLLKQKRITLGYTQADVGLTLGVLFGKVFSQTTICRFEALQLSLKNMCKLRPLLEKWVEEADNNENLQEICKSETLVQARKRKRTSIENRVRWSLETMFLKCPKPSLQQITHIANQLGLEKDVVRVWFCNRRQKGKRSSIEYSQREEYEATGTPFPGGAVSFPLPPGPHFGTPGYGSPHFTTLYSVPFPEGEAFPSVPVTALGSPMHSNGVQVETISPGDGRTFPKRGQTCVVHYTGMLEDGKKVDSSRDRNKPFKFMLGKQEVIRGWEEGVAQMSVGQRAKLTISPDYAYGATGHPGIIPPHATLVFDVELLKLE
T1 sequence (Q8C7D2 whole entry, the tested form may be a part): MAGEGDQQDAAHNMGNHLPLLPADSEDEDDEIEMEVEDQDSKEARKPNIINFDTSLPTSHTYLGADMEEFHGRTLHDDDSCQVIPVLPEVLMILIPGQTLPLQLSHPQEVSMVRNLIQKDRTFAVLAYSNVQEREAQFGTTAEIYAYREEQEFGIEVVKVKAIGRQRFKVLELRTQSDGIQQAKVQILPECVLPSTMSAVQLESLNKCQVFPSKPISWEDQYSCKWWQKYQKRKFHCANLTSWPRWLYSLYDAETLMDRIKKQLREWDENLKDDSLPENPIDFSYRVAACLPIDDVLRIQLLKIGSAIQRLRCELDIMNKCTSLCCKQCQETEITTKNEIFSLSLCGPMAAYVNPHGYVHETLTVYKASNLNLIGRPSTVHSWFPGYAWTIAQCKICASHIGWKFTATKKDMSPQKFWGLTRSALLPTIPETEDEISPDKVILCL
T1 sequence (Q3U1J4 whole entry partner, the tested form may be a part): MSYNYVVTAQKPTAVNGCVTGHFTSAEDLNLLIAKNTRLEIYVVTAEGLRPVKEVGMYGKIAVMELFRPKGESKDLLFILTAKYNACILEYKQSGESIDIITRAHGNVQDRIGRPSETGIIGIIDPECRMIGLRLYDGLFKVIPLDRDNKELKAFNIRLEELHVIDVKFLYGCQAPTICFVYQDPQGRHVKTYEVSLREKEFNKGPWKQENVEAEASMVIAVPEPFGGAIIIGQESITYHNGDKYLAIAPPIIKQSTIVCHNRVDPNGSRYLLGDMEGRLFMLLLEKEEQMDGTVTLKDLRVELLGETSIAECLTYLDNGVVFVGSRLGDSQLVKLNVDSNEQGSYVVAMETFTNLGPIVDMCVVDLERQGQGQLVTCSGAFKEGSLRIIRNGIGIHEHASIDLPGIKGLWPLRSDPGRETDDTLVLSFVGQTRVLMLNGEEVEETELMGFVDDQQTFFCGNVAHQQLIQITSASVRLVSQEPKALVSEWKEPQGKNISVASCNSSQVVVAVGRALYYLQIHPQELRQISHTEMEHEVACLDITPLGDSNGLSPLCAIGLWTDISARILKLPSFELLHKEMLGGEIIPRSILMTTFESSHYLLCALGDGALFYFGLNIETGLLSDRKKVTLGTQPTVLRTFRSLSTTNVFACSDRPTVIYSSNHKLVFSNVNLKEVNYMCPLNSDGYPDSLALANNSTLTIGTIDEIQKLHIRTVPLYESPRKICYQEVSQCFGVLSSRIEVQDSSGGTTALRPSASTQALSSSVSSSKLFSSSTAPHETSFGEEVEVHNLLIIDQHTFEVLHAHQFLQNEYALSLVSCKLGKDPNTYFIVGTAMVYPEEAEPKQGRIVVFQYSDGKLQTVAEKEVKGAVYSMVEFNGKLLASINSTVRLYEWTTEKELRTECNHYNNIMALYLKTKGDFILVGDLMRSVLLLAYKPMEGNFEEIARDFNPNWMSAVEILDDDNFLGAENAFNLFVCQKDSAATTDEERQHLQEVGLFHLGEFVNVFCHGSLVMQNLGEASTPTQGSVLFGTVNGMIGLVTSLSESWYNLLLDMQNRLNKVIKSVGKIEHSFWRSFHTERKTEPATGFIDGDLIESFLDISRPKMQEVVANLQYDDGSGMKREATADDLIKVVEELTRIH
Procedure: Cells were lysed in Cell Lytic M (Sigma-Aldrich C2978) with protease inhibitors (Roche, 11697498001). Lysate was run on a 3%-8% Tris-acetate gel or 10% Bis-Tris gel or 3-8% Bis-Tris gels at 80 V for ˜2 hrs, followed by 120 V until dye front reached the end of the gel. Protein was then wet transferred to a 0.45 μm PVDF membrane (Millipore, IPVH00010) in ice-cold transfer buffer (25 mM Tris, 192 mM glycine, 10% methanol) at 300 mA for 2 hours at 4° C. After transfer the membrane was blocked with 5% non-fat milk in TBS for 1 hour at room temperature, shaking. Membrane was then incubated with 1:1,000 of the indicated antibody (Table S4) diluted in 5% non-fat milk in TBST and incubated overnight at 4° C., with shaking. In the morning, the membrane was washed three times with TBST for 5 minutes at room temperature shaking for each wash. Membrane was incubated with 1:5,000 secondary antibodies for 1 hr at RT and washed three times in TBST for 5 minutes. Membranes were developed with ECL substrate (Thermo Scientific, 34080) and imaged using a CCD camera or exposed using film or with high sensitivity ECL.
The CRISPR/Cas9 system was used to genetically engineer ESC lines. Target-specific oligonucleotides were cloned into a plasmid carrying a codon-optimized version of Cas9 with GFP (gift from R. Jaenisch). […]

SMILES | MYC RNA expression [1] | Condensate formation of mutant ER proteins with MED1 [2] | Effect on ER LBD-MED1 condensate, live cell imaging [3] | MED1 protein levels [4] | OCT4 protein levels [4]
C[C@]12CC[C@@H]3c4ccc(O)cc4CC[C@H]3[C@@H]1CC[C@@H]2O [estrogen, B-Estradiol] | increase | estrogen-independent |  |  | 
CC/C(=C(\c1ccccc1)c1ccc(OCCN(C)C)cc1)c1ccccc1 [tamoxifen] | reduced | tamoxifen-insensitive | dissolves the ER LBD-MED1 condensate |  | 
CC[C@H](C(=O)N1CCCC[C@H]1C(=O)O[C@H](CCc1ccc(OC)c(OC)c1)c1ccccc1OCC(=O)NCCCCCCCCNc1ccc2c(c1)C(=O)N(C1CCC(=O)NC1=O)C2=O)c1cc(OC)c(OC)c(OC)c1 (stereo partly shown) [dTag] |  |  |  | did not affect MED1 levels | reduced OCT4 protein levels
